Patent US20250304990A1, “HERBICIDE RESISTANCE” (SYNGENTA CROP PROTECTION AG, priority 2021, published 2025)
Several values for one entry are separate records, joined by “and”; a condition that tells them apart may be missing. Equal values may be shown once.

Assays:
[1] = tested on: D4293 (V277A mutant Arabidopsis thaliana HST) containing tobacco plant; assay: Herbicide damage score after spraying, Example 3; format: in vivo; conditions: T1 B5u 500 gai/ha, averaged across transgenic population
Method: (§1) In order to determine if the newly discovered mutations detailed in Example 1 confer resistance to HST inhibiting compounds when expressed in plants, GM tobacco lines are to be produced and tested with HST inhibiting compounds. Transgenic tobacco plants expressing the Arabidopsis HST gene with and without mutations were tested.
(§2) Populations of transgenic tobacco comprising 20-30 transgenic events per plant transformation constructs were generated as described in Example 2. These lines were clonally propagated and 1 clone per event was sprayed with 500, 100 or 50 g ai/ha of compound 1+0.2% Genapol X080 with a spray volume of 200 L/Ha (“g ai/ha” refers to grams of active compound per hectare).
(§3) Herbicidal damage was visually assessed across the population and a herbicide damage score given at 7 and 14 days. A score of 0 indicates no visible damage or stunting whereas a score of 100 indicates a complete death of the plant. 20 transgenic events (i.e. individual transgenic plants) from each GM tobacco line were transplanted to soil 1 week prior to spraying with HST inhibiting compounds. WT tobacco was included as a control.
(§4) The values in Tables 8 to 14 below refer to percentage of damage to the tested plants and show the damage scores for 20 populations of plants expressing either Arabidopsis WT HST gene (SEQ ID NO. 14), the Arabidopsis HST mutated gene according to SEQ ID NO. 27, the Arabidopsis HST mutated gene according to SEQ ID NO. 28, the Arabidopsis HST mutated gene according to SEQ ID NO. 29, the Arabidopsis HST mutated gene according to SEQ ID NO. 30, or the Arabidopsis HST mutated gene according to SEQ ID NO. 31. A control population of wild-type Samsun tobacco was also assessed for herbicide damage. […] However the mutated versions of the HST gene carrying the F276I, V277A, F280I or F280L mutations (SEQ ID NOs: 27, 28, 30 or 31) clearly display increased tolerance.

[2] = tested on: D4295 (F280I mutant Arabidopsis thaliana HST) containing tobacco plant; assay: Herbicide damage score after spraying, Example 3; format: in vivo; conditions: T1 B5u 500 gai/ha, averaged across transgenic population
Method: as §1, §2, §3, §4

[3] = tested on: D4294 (T278N mutant Arabidopsis thaliana HST) containing tobacco plant; assay: Herbicide damage score after spraying, Example 3; format: in vivo; conditions: T1 B5u 500 gai/ha; D4294 T278N; averaged across transgenic population
Method: as §1, §2, §3, §4

[4] = tested on: D4292 (F276I mutant Arabidopsis thaliana HST) containing tobacco plant; assay: Herbicide damage score after spraying, Example 3; format: in vivo; conditions: T1 B5u 500 gai/ha, averaged across transgenic population
Method: as §1, §2, §3, §4

[5] = tested on: D4291 (WT Arabidopsis thaliana HST) containing tobacco plant; assay: Herbicide damage score after spraying, Example 3; format: in vivo
Method: as §1, §2, §3, §4

[6] = tested on: WT tobacco; assay: Herbicide damage score after spraying, Example 3; format: in vivo; conditions: T1 B5u 500 gai/ha; WT tobacco control; per plant
Method: as §1, §2, §3, §4

[7] = tested on: Cf-496-6; assay: Dose response test, growth in 96-well plates; format: cell-based, Chlorella fusca; conditions: strain Cf-496-6; no growth, visual inspection
[8] = tested on: Cf-496-75; assay: Dose response test, growth in 96-well plates; format: cell-based, Chlorella fusca; conditions: strain Cf-496-75; no growth, visual inspection
[9] = tested on: D4424 (WT Oryza sativa HST) containing tobacco plant; assay: Herbicide damage score after spraying, Example 4; format: in vivo
Method: as §1, with “were” for “are to be”, “Oryza sativa” for “Arabidopsis”
(§5) Populations of transgenic tobacco comprising 20-30 transgenic events per plant transformation constructs were generated as described in Example 2. These lines were clonally propagated and 1 clone per event was sprayed with 500, 100 or 50 g ai/ha of compound 1+0.2% (w/v) Genapol X080 with a spray volume of 200 L/Ha. (“g ai/ha” refers to grams of active compound per hectare).
as §3, with “control. The mutated genes are identified in Table 16 below.” for “control.”
(§6) The values in Tables 17 to 23 below refer to percentage of damage to the tested plants and show the damage scores for 20 populations of plants expressing either Oryza sativa WT HST gene (SEQ ID NO. 18), the Oryza sativa HST mutated gene according to SEQ ID NO. 47, the Oryza sativa HST mutated gene according to SEQ ID NO. 48, the Oryza sativa HST mutated gene according to SEQ ID NO. 49, the Oryza sativa HST mutated gene according to SEQ ID NO. 50, or the Oryza sativa HST mutated gene according to SEQ ID NO. 51. A control population of wild-type Samsun tobacco was also assessed for herbicide damage. […] However the mutated versions of the HST gene carrying the F262I, V263A, […], or F266L mutations (SEQ ID NOs: 47, 48, 50 or 51) clearly display increased tolerance.

[10] = tested on: D4425 (F262I mutant Oryza sativa HST) containing tobacco plant; assay: Herbicide damage score after spraying, Example 4; format: in vivo; conditions: T1 B5u 500 gai/ha, averaged across transgenic population
Method: as §1, with “were” for “are to be”, “Oryza sativa” for “Arabidopsis”
as §5
as §3, with “control. The mutated genes are identified in Table 16 below.” for “control.”
as §6

[11] = tested on: D4427 (T264N mutant Oryza sativa HST) containing tobacco plant; assay: Herbicide damage score after spraying, Example 4; format: in vivo; conditions: T1 B5u 500 gai/ha
Method: as §1, with “were” for “are to be”, “Oryza sativa” for “Arabidopsis”
as §5
as §3, with “control. The mutated genes are identified in Table 16 below.” for “control.”
as §6

[12] = tested on: D4429 (F266L mutant Oryza sativa HST) containing tobacco plant; assay: Herbicide damage score after spraying, Example 4; format: in vivo; conditions: T1 B5u 500 gai/ha, averaged across transgenic population
Method: as §1, with “were” for “are to be”, “Oryza sativa” for “Arabidopsis”
as §5
as §3, with “control. The mutated genes are identified in Table 16 below.” for “control.”
as §6

[13] = tested on: WT tobacco; assay: Herbicide damage score after spraying, Example 4; format: in vivo; conditions: T1 B5u 500 gai/ha; WT tobacco (Example 4); per plant
Method: as §1, with “were” for “are to be”, “Oryza sativa” for “Arabidopsis”
as §5
as §3, with “control. The mutated genes are identified in Table 16 below.” for “control.”
as §6

[14] = tested on: D4428 (F266I mutant Oryza sativa HST) containing tobacco plant; assay: Herbicide damage score after spraying, Example 4; format: in vivo; conditions: T1 B5u 500 gai/ha, averaged across transgenic population
Method: as §1, with “were” for “are to be”, “Oryza sativa” for “Arabidopsis”
as §5
as §3, with “control. The mutated genes are identified in Table 16 below.” for “control.”
as §6

Question: Which Average percentage damage [1] does the source give for `Cc1nn(C)c(=O)c(-c2c(F)ccc(Cl)c2CCc2ccc(C(F)(F)F)cc2)c1OC(=O)C(C)C` [B5u, [5-[3-chloro-6-fluoro-2-[2-[4-(trifluoromethyl)phenyl]ethyl]phenyl]-1,3-dimethyl-6-oxo-pyridazin-4-yl]2-methylpropanoate] here?
Answer: 22%

Question: What about the Average percentage damage [2] of the same molecule?
Answer: 35%

Question: What about the Average percentage damage [3] of the same molecule?
Answer: 76%

Question: And the Average percentage damage [4]?
Answer: 28%

Question: And the Average percentage damage ([5]; T1 B5u 500 gai/ha, D4291, mutation n.a., averaged across transgenic population)?
Answer: 55%

Question: And the tolerance to herbicide ([5]; overexpression of Arabidopsis HST gene (SEQ ID NO.14) in tobacco)?
Answer: does not increase tolerance

Question: And the percentage of damage [6]?
Answer: 95% and 90%

Question: And the “LD (lethal dose)” value [7]?
Answer: >100 ppm

Question: What about the “LD (lethal dose)” value [8] of the same molecule?
Answer: 6.25 ppm

Question: What about the Average percentage damage ([9]; T1 B5u 500 gai/ha, D4424, mutation n.a., averaged across transgenic population) of the same molecule?
Answer: 31%

Question: And the tolerance to herbicide ([9]; overexpression of Oryza sativa HST gene (SEQ ID NO.18) in tobacco)?
Answer: does not increase tolerance

Question: What about the Average percentage damage [10] of the same molecule?
Answer: 38%

Question: And the percentage of damage ([11]; D4427 OsHST V003 T264N, per event)?
Answer: 50%

Question: And the Average percentage damage ([11]; D4427 T264N, averaged across transgenic population)?
Answer: 67%

Question: And the Average percentage damage [12]?
Answer: 40%

Question: And the percentage of damage [13]?
Answer: 98% and 97% and 96% and 95%

Question: What about the Average percentage damage [14] of the same molecule?
Answer: 56%
